Converted amounts (≈) assume the structure as drawn.
Tests used:
[1] = molecular target: CDK3/Cyclin E (Homo sapiens) (UniProt P24864+Q00526); experiment: Inhibition of CDK3/Cyclin E1 (unknown origin) at 200 nM preincubated for 10 mins followed by substrate addition and measured after 60 mins in presence of ATP by ADP-Glo reagent based assay relative to control; format: protein-complex assay; conditions: time 70.0 min
[2] = molecular target: Dual specificity protein kinase CLK3 (Homo sapiens) (UniProt P49761); experiment: Inhibition of CLK3 (unknown origin) at 100 nM preincubated for 10 mins followed by substrate addition and measured after 60 mins in presence of ATP by ADP-Glo reagent based assay relative to control; conditions: time 70.0 min
Sequence of Dual specificity protein kinase CLK3 (Homo sapiens) (P49761 whole entry, looked up): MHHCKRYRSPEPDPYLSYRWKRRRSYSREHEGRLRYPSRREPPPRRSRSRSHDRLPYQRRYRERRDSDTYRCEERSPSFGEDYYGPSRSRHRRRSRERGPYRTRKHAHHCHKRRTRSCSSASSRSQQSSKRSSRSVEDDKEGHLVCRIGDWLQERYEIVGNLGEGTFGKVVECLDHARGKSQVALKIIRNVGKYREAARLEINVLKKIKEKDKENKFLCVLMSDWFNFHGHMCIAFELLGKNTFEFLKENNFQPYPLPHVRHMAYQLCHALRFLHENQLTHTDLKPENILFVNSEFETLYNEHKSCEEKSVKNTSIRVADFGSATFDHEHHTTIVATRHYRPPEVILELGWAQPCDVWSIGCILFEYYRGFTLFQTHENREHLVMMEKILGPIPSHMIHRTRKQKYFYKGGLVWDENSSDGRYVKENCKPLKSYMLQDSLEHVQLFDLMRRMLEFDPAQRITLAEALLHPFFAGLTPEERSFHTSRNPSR

PC-9 = experiment: Antiproliferative activity against human PC-9 cells incubated for 72 hrs by MTT assay; format: functional, cell-based; conditions: PC-9, 72 h
[3] = Downregulation of Mcl-1 level in human Osimertinib-resistant NCI-H1975 cell at 500 nM measured after 8 hrs by Western blotting analysis relative to control; format: functional
[4] = Antiproliferative activity against human Osimertinib-resistant NCI-H1975 cell assessed as cell growth inhibition incubated for 72 hrs in presence of osimertinib by MTT assay; format: functional, cell-based; conditions: NCI-H1975, 72 h
NCI-H1975 [5] = experiment: Induction of apoptosis in human Osimertinib-resistant NCI-H1975 cell assessed as increase in percentage of apoptotic cells measured after 16 hrs by Annexin V-FITC and PI staining based analysis; format: functional; conditions: dose 125-2000 nM
NCI-H1975 [6] = experiment: Downregulation of Bcl-2 level in human Osimertinib-resistant NCI-H1975 cell measured after 16 hrs by Western blot analysis; format: functional, cell-based; conditions: dose 125-2000 nM
NCI-H1975 [7] = experiment: Downregulation of cleaved PARP level in human Osimertinib-resistant NCI-H1975 cell measured after 16 hrs by Western blot analysis; format: functional, cell-based; conditions: dose 125-2000 nM
[8] = Induction of apoptosis in human Osimertinib-resistant NCI-H1975 cell assessed as late apoptotic cells at 125 nM measured after 16 hrs in presence of osimertinib by Annexin V-FITC and PI staining based analysis (Rvb =2.84%); format: functional
[9] = Half life in Sprague-Dawley rat at 2 mg/kg, iv measured upto 24 hrs; format: ADME, organism-based; conditions: in vivo
[10] = AUC in Sprague-Dawley rat at 2 mg/kg, iv measured upto 24 hrs; format: ADME, organism-based; set-up: dose 2 mg/kg, time < 24 hrs, route iv; conditions: in vivo
[11] = Oral bioavailability in Sprague-Dawley rat at 20 mg/kg measured upto 24 hrs; format: ADME, organism-based; conditions: in vivo
[12] = Metabolic stability in rat liver microsomes assessed as half life at 10 uM measured at 5 to 60 mins by LC-MS/MS analysis; format: ADME, Microsome; conditions: time 5-60 min
CYP3A4 = CYP3A4 (Homo sapiens, UniProt P08684); experiment: Inhibition of CYP3A4 in human liver microsomes using midazolam as substrate at 10 uM incubated for 5 mins in presence of NADPH by LC-MS/MS analysis relative to control; format: ADME, Microsome; conditions: probe midazolam
Sequence of CYP3A4 (P08684 whole entry): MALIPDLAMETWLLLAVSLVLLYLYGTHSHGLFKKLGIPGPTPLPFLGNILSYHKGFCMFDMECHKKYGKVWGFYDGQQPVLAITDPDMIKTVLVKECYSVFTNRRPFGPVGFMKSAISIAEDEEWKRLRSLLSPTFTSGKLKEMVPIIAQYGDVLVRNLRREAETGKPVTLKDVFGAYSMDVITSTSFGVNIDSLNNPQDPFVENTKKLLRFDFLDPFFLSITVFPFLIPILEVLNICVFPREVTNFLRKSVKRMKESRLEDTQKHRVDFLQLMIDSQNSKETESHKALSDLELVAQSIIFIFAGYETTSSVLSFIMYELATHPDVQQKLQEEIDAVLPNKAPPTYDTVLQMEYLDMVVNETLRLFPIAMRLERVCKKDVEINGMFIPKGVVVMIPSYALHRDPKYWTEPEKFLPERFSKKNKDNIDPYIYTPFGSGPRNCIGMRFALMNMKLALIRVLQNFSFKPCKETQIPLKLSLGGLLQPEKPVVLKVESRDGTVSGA

[13] = Solubility of the compound in water at pH 7.4 by shake flask method; format: physicochemical
[14] = Toxicity in ICR mouse assessed as effect on physical appearance at 1000 mg/kg, po measured for 8 to 9 days; format: organism-based; conditions: in vivo, time 8-9 day
[15] = Toxicity in ICR mouse assessed as abnormalities in lung at 1000 mg/kg, po measured after 9 days by H and E staining based analysis; format: organism-based; conditions: in vivo, 216 h, time 9 day
[16] = Antitumor activity against patient derived #2862 lung cancer organoid assessed as inhibition of growth measured after 4 days; format: functional, tissue-based; conditions: Homo sapiens, 96 h

Sequence of CDK3/Cyclin E (Homo sapiens) (P24864 whole entry, looked up): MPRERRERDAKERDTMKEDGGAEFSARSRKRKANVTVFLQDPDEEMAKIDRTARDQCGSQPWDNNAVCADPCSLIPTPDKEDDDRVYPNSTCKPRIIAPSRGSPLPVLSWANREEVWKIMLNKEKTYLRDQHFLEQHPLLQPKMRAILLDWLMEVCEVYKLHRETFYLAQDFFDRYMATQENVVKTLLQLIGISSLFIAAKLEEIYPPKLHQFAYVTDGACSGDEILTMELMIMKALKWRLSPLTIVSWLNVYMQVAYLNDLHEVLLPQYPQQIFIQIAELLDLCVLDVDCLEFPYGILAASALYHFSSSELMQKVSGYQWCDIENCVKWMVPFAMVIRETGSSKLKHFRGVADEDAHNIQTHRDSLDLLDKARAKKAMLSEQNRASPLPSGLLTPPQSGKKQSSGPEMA
Sequence of CDK3/Cyclin E (Homo sapiens) (Q00526 whole entry, looked up): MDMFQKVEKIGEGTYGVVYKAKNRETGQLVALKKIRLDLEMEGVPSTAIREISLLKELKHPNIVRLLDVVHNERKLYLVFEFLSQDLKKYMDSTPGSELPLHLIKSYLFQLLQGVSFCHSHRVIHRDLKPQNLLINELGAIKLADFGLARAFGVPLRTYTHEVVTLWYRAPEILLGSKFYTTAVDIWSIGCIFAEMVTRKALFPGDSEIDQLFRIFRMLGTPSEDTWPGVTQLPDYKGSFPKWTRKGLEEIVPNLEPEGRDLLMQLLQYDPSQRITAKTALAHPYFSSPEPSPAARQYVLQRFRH

Structure (SMILES): O=C(NCCN1CCOCC1)c1ccc2cc1OCCCCCCOc1cc(ccc1F)-c1nc(ncc1F)N2
- inhibition [1]: 29.6%
- inhibition [2]: 5.7%
- IC50 (PC-9): 0.126 µM
- Activity [3]: 90%
- IC50 [4]: 0.083 µM
- Activity (NCI-H1975 [5]): Dose-Dependent Effect
- Activity (NCI-H1975 [6]): Dose-Dependent Effect
- Activity (NCI-H1975 [7]): Dose-Dependent Effect
- Activity [8]: 18.2%
- half-life [9]: 108 min
- AUC at 24 h [10]: 1080 ng·h/mL
- bioavailability [11]: 8%
- half-life at 10 µM [12]: 6.8 min
- inhibition at 5 min, 10 µM (CYP3A4): 27.5%
- solubility thermodynamic [13]: 626 µg/mL (≈ 1130 µM)
- Activity [14]: Non-Toxic
- Activity [15]: Non-Toxic
- IC50 [16]: 0.94 µM

Source: ChEMBL document CHEMBL5390253, “Discovery of Selective and Potent Macrocyclic CDK9 Inhibitors for the Treatment of Osimertinib-Resistant Non-Small-Cell Lung Cancer” (J Med Chem, 2023)
